Patent publication USH1942H, “Herbicidal 3-(pyrazolylphenyl)propanoic acids and derivatives” (FMC Corporation, priority 1998, dated 2001)

What was measured:
Chickweed [1] = assay: pre-emergence herbicidal activity, chickweed; type: in vivo, Stellaria media; details: preemergence, 1.0 kg/ha
Description: (§1) The test plants included soybean (Glycine max var. Winchester), field corn (Zea mays var. Pioneer 3732), wheat (Triticum aestivum var. Lew), morning glory (Ipomea lacunosa or Ipomea hederacea), velvetleaf (Abutilon theophrasti), green foxtail (Setaria viridis), Johnsongrass (Sorghum halepense), blackgrass (Aloepecurus myosuroides), common chickweed (Stellaria media), and common cocklebur (Xanthium strumarium L.).
(§2) For pre-emergence testing, two disposable fiber flats (8 cm×15 cm×25 cm) for each rate of application of each candidate herbicide were filled to an approximate depth of 6.5 cm with steam-sterilized sandy loam soil. The soil was leveled and impressed with a template to provide five evenly spaced furrows 13 cm long and 0.5 cm deep in each flat. Seeds of soybean, wheat, corn, green foxtail, and johnsongrass were planted in the furrows of the first flat, and seeds of velvetleaf, morningglory, common chickweed, cocklebur, and blackgrass were planted in the furrows of the second flat. […]
(§3) The pre-emergence flats were initially subjected to a light water spray. […] After 12-17 days, the plants were examined, and the phytotoxicity data were recorded. […]
(§4) Phytotoxicity data are taken as percent control. Percent control is determined by a method similar to the 0 to 100 rating system disclosed in "Research Methods in Weed Science," 2nd ed., B. Truelove, Ed. […]

Corn [2] = assay: post-emergence herbicidal activity, corn; type: in vivo, Zea mays var. Pioneer 3732; details: postemergence, 1.0 kg/ha
Corn [3] = assay: pre-emergence herbicidal activity, corn; type: in vivo, Zea mays var. Pioneer 3732; details: preemergence, 1.0 kg/ha
Description: as §1, §2, §3, §4

Morningglory = assay: pre-emergence herbicidal activity, morningglory; type: in vivo, Ipomea lacunosa or Ipomea hederacea; details: preemergence, 1.0 kg/ha
Description: as §1, §2, §3, §4

Velvetleaf = assay: pre-emergence herbicidal activity, velvetleaf; type: in vivo, Abutilon theophrasti; details: preemergence, 1.0 kg/ha
Description: as §1, §2, §3, §4

Chickweed [4] = assay: post-emergence herbicidal activity, chickweed; type: in vivo, Stellaria media; details: postemergence, 1.0 kg/ha
Green foxtail [5] = assay: post-emergence herbicidal activity, green foxtail; type: in vivo, Setaria viridis; details: postemergence, 1.0 kg/ha
Wheat [6] = assay: pre-emergence herbicidal activity, wheat; type: in vivo, Triticum aestivum var. Lew; details: preemergence, 1.0 kg/ha
Description: as §1, §2, §3, §4

Blackgrass [7] = assay: pre-emergence herbicidal activity, blackgrass; type: in vivo, Aloepecurus myosuroides; details: preemergence, 1.0 kg/ha
Description: as §1, §2, §3, §4

Johnsongrass [8] = assay: post-emergence herbicidal activity, johnsongrass; type: in vivo, Sorghum halepense; details: postemergence, 1.0 kg/ha
Cocklebur [9] = assay: post-emergence herbicidal activity, cocklebur; type: in vivo, Xanthium strumarium L.; details: postemergence, 1.0 kg/ha
Soybean [10] = assay: post-emergence herbicidal activity, soybean; type: in vivo, Glycine max var. Winchester; details: postemergence, 1.0 kg/ha
Johnsongrass [11] = assay: pre-emergence herbicidal activity, johnsongrass; type: in vivo, Sorghum halepense; details: preemergence, 1.0 kg/ha
Description: as §1, §2, §3, §4

Blackgrass [12] = assay: post-emergence herbicidal activity, blackgrass; type: in vivo, Aloepecurus myosuroides; details: postemergence, 1.0 kg/ha
Cocklebur [13] = assay: pre-emergence herbicidal activity, cocklebur; type: in vivo, Xanthium strumarium L.; details: preemergence, 1.0 kg/ha
Description: as §1, §2, §3, §4

Soybean [14] = assay: pre-emergence herbicidal activity, soybean; type: in vivo, Glycine max var. Winchester; details: preemergence, 1.0 kg/ha
Description: as §1, §2, §3, §4

Wheat [15] = assay: post-emergence herbicidal activity, wheat; type: in vivo, Triticum aestivum var. Lew; details: postemergence, 1.0 kg/ha
Green foxtail [16] = assay: pre-emergence herbicidal activity, green foxtail; type: in vivo, Setaria viridis; details: preemergence, 1.0 kg/ha
Description: as §1, §2, §3, §4

Structure (SMILES) | % CONTROL (Chickweed [1]) | % CONTROL (Corn [2]) | % CONTROL (Corn [3]) | % CONTROL (Morningglory) | % CONTROL (Velvetleaf) | % CONTROL (Chickweed [4]) | % CONTROL (Green foxtail [5]) | % CONTROL (Wheat [6]) | % CONTROL (Blackgrass [7]) | % CONTROL (Johnsongrass [8]) | % CONTROL (Cocklebur [9]) | % CONTROL (Soybean [10]) | % CONTROL (Johnsongrass [11]) | % CONTROL (Blackgrass [12]) | % CONTROL (Cocklebur [13]) | % CONTROL (Soybean [14]) | % CONTROL (Wheat [15]) | % CONTROL (Green foxtail [16])
CCOC(=O)C(Cl)Cc1cc(-c2nn(C)c(OC(F)F)c2Cl)c(Cl)cc1Cl (stereo not drawn) [Compound 1] | 100% | 60% | 40% | 100% | 100% | 100% | 100% | 20% | 40% | 100% | 100% | 100% | 80% | 40% | 100% | 100% | 30% | 100%
CCOC(=O)C(Cl)Cc1cc(-c2nn(C)c(OC(F)F)c2Cl)c(F)cc1Cl (stereo not drawn) [Compound 2, Ethyl 2-chloro-3-[2-chloro-4-fluoro-5-(4-chloro-5-difluoromethoxy-1-methylpyrazol-3-yl)phenyl]propanoate] | 100% | 90% | 10% | 100% | 100% | 100% | 100% | 30% | 50% | 90% | 100% | 100% | 70% | 60% | 100% | 90% | 55% | 100%
